{"source": "paper PMC2987774", "about": "“Creation of a novel peptide with enhanced nuclear localization in prostate and pancreatic cancer cell lines” (BMC Biotechnology, 2010)", "key": {"DU-145 cells [1]": {"test_system": "DU-145 cells", "conditions": "for % Inhibition of uptake: 300 nM, 4 hr; for uptake of Glu-Oct6-FITC on coincubation with carboxydansyl peptide: 300 nM dansyl peptide + 300 nM Glu-Oct6-FITC, 1 hr, BD LSR II (Figure 2D)", "quoted_text": "Peptides were added to subconfluent cultures of cells at times, temperatures, and concentrations indicated in experiments. Concentrations ranging from 0 to 1000 nM were assayed. Fluorescence was normalized using calibration beads (Becton-Dickinson; BD). Cells were analyzed in the presence of 5 mM 7-AAD (eBioscience, San Digeo CA) to gate on live events. Fluorescence was quantified, after cells were harvested, using a BD FACScan flow cytometer. At least 10,000 events were acquired using CellQuest Pro software and an Apple Macintosh G4 dual coprocessor computer running OS X 10.3.9. Fluorescence detectors on the instrument were standardized prior to each acquisition run, so that fluorescence intensities from different days could be compared. Because the FACScan employs logarithmic amplifiers on the fluorescence detectors, the more accurate parameter with which to compare fluorescence intensities for different samples is the geometric mean fluorescence intensity (geometric MFI). For the studies examining uptake of carboxyfluorescein peptides plus carboxydansyl peptides, fluorescence was quantified on a BD LSR II flow cytometer."}, "DU-145 cells [2]": {"test_system": "DU-145 cells", "test": "Apoptosis, FITC-annexin V plus PI flow cytometry", "type": "cell-based", "conditions": "48 hr, mean of 3 experiments", "procedure": "(§1) DU-145 and PANC-1 cells were incubated with PNAs Glu-Oct6-13410a or 13410a (no CPP attached) at 0, 300, 600, or 1000 nM for 48 hr. Cells were harvested, then stained with FITC-annexin V (Abcam; Cambridge, MA) and counterstained with propidium iodide (Sigma, St.Louis, MO). Cells were analyzed on a BD FACScan for fluorescence in the FL1 and FL3 channels; CellQuest Pro software was used to quantify fluorescence and determine the extent of apoptosis."}, "PANC-1 cells [3]": {"test_system": "PANC-1 cells", "test": "Apoptosis, FITC-annexin V plus PI flow cytometry", "type": "cell-based", "conditions": "48 hr, mean of 3 experiments", "procedure": "as §1"}, "DU-145 cells [4]": {"test_system": "DU-145 cells", "test": "Nuclear colocalization by imaging flow cytometry (DRAQ5, Amnis ImageStream)", "type": "cell-based", "conditions": "1000 nM, 18 hr; 4 to 5 thousand events", "procedure": "(§2) Concentrations ranging from 0 to 1000 nM were assayed. Fluorescence was normalized using calibration beads (Becton-Dickinson; BD). […] Four to five thousand events were collected for analysis."}, "PANC-1 cells [5]": {"test_system": "PANC-1 cells", "test": "Nuclear colocalization by imaging flow cytometry (DRAQ5, Amnis ImageStream)", "type": "cell-based", "conditions": "1000 nM, 18 hr; 4 to 5 thousand events", "procedure": "as §2"}, "DU-145 and LNCaP cells [6]": {"test_system": "DU-145 and LNCaP cells", "test": "Live cell imaging, inverted epifluorescence microscopy with DRAQ5", "type": "cell-based", "conditions": "500 nM, 24 hrs incubation", "procedure": "A Zeiss Axiovert 200 inverted phase-contrast microscope outfitted with epifluorescence was used for live imaging studies. Subconfluent cultures of cells in 12-well plates were incubated with 500 nM peptides as indicated. DRAQ5 (Axxora; […] final concentration) was added for the last hour of incubation, then the cells were washed twice with warm phenol red-free buffer. Cells were examined in phenol red-free buffer plus 10% serum. Images were acquired and analyzed using Zeiss Axiovision software."}, "DU-145 and LNCaP cells [7]": {"test_system": "DU-145 and LNCaP cells", "test": "Nuclear colocalization by imaging flow cytometry (DRAQ5), statement pooled over two lines", "type": "cell-based", "conditions": "250 nM, 4 hours; fixed cells, IDEAS software", "procedure": "Figure 4 Imaging studies. Figure 4A: DU-145 and LNCaP cells were incubated with 250 nM Glu-Ala-FITC or Glu-Oct6-FITC for 4 hours, counterstained with […] DRAQ 5, then fixed in paraformaldehyde and analyzed by imaging flow cytometry on an Amnis Imaging Cytometer. IDEAS software (Amnis) was used to generate and colorize the images. Across each row of images, one is viewing the same cell under different fluorescence excitations. […] Figure 4B: Live cell imaging of Glu-Oct6-FITC by DU-145 cells. 500 nM Glu-Oct6-FITC was incubated with DU-145 cells overnight (necessary for imaging purposes). Cells were washed with phenol red-free buffer, counter-stained with DRAQ5 at […], and then examined under a Zeiss Axiovert 200 inverted phase contrast microscope with epifluorescence. The merged image confirms the presence of Glu-Oct6-FITC in nuclei. Merged images with and without Nomarski interference are shown. Figure 4C and D: DU-145 cells incubated with Glu-FITC and Oct6-FITC, as described for Figure 3B. Note the absence of FITC fluorescence in nuclei.\nas §2"}}, "note": "Several values for one entry are separate records, joined by “and”; a condition that tells them apart may be missing. Equal entries are not always repeated. Where two headings read alike, the source gives them in different places. Marks after values point to notes of the source that are not given here."}
{"substance": "EEEAAKKK-FITC [Glu-Lys-FITC]", "values": [{"measurement": "% Inhibition of uptake", "setting": "DU-145 cells [1]; 0% NaN3 (reference)", "value": 0, "unit": "%"}, {"measurement": "% Inhibition of uptake", "setting": "DU-145 cells [1]; 0.1% NaN3", "value": 0, "unit": "%"}]}
{"substance": "NNNAAGRKRKKRT-dansyl [Asn-Oct6-Dansyl]", "values": [{"measurement": "uptake of Glu-Oct6-FITC on coincubation with carboxydansyl peptide", "setting": "DU-145 cells [1]", "value": "nearly unaltered uptake"}]}
{"substance": "EEEAAGRKRKKRT-TCCCGTAAATCCCTA [Glu-Oct6-13410a]", "values": [{"measurement": "% apop.", "setting": "DU-145 cells [2]; 300 nM PNA", "value": 8.7, "unit": "%"}, {"measurement": "% apop.", "setting": "DU-145 cells [2]; 600 nM PNA", "value": "48% and 48.7* %"}, {"measurement": "% apop.", "setting": "DU-145 cells [2]; 1000 nM PNA", "value": "82.5* %"}, {"measurement": "% apop.", "setting": "PANC-1 cells [3]; 300 nM PNA", "value": 17.4, "unit": "%"}, {"measurement": "% apop.", "setting": "PANC-1 cells [3]; 600 nM PNA", "value": "69% and 69.6* %"}, {"measurement": "% apop.", "setting": "PANC-1 cells [3]; 1000 nM PNA", "value": "84.6* %"}]}
{"substance": "EEEAAGRKRKKRT-TATGATCTCCTCCGT-K-FITC [Glu-Oct6-PNA-FITC, Glu-Oct6 at the N terminus, inert PNA …-lysyl-FITC at the C terminus]", "values": [{"measurement": "mean % cyto. FITC", "setting": "DU-145 cells [4]", "value": 22.48, "unit": "%"}, {"measurement": "mean % nuclear FITC", "setting": "DU-145 cells [4]", "value": 68.04, "unit": "%"}, {"measurement": "mean cyto. FITC intensity", "setting": "DU-145 cells [4]", "value": "76,943"}, {"measurement": "mean nuclear FITC intensity", "setting": "DU-145 cells [4]", "value": "274,597"}, {"measurement": "mean % cyto. FITC", "setting": "PANC-1 cells [5]", "value": 21.8, "unit": "%"}, {"measurement": "mean cyto. FITC intensity", "setting": "PANC-1 cells [5]", "value": "68,465"}, {"measurement": "mean nuclear FITC intensity", "setting": "PANC-1 cells [5]", "value": "322,794"}]}
{"substance": "EEEAAGRKRKKRT-FITC [Glu-Oct6-FITC]", "values": [{"measurement": "accumulation in the nuclei", "setting": "DU-145 and LNCaP cells [6]", "value": "accumulated in the nuclei"}, {"measurement": "distribution in the cytoplasm", "setting": "DU-145 and LNCaP cells [7]", "value": "approximately 50%"}, {"measurement": "distribution in the nucleus", "setting": "DU-145 and LNCaP cells [7]", "value": "approximately 50%"}, {"measurement": "% Inhibition of uptake", "setting": "DU-145 cells [1]; 0% NaN3 (reference)", "value": 0, "unit": "%"}, {"measurement": "% Inhibition of uptake", "setting": "DU-145 cells [1]; 0.1% NaN3", "value": 0, "unit": "%"}, {"measurement": "% Inhibition of uptake", "setting": "DU-145 cells [1]; 1.0% NaN3", "value": 24.8, "unit": "%"}]}
{"substance": "FFFAAGRKRKKRT-dansyl [Phe-Oct6-Dansyl]", "values": [{"measurement": "uptake of Glu-Oct6-FITC on coincubation with carboxydansyl peptide", "setting": "DU-145 cells [1]", "value": "nearly unaltered uptake"}]}
{"substance": "GRKRKKRT-FITC [Oct6-FITC, reference compound]", "values": [{"measurement": "accumulation in the nuclei", "setting": "DU-145 and LNCaP cells [6]", "value": "not"}, {"measurement": "% Inhibition of uptake", "setting": "DU-145 cells [1]; 0% NaN3 (reference)", "value": 0, "unit": "%"}, {"measurement": "% Inhibition of uptake", "setting": "DU-145 cells [1]; 0.1% NaN3", "value": 29.8, "unit": "%"}, {"measurement": "% Inhibition of uptake", "setting": "DU-145 cells [1]; 1.0% NaN3", "value": 56.7, "unit": "%"}]}
{"substance": "EEEAA-FITC [Glu-Ala-FITC]", "values": [{"measurement": "accumulation in the nuclei", "setting": "DU-145 and LNCaP cells [6]", "value": "not"}, {"measurement": "nuclei positive for DRAQ5 and FITC colocalization", "setting": "DU-145 and LNCaP cells [7]", "value": "~ 10%"}, {"measurement": "% Inhibition of uptake", "setting": "DU-145 cells [1]; 0% NaN3 (reference)", "value": 0, "unit": "%"}, {"measurement": "% Inhibition of uptake", "setting": "DU-145 cells [1]; 0.1% NaN3", "value": 0, "unit": "%"}]}
